Data set [1] concerns Puccinia recondita f. sp. Tritici. The data set is described as follows: Puccinia recondita f. sp. tritici / wheat / leaf disc curative (brown rust). It counts as in vivo. The settings on record: foliar, wheat leaf segments cv Kanzler, applied 1 day after inoculation, assessed 6-8 days after application, read-out: control of Puccinia recondita f. sp. Tritici (percent disease control compared to untreated). The method, then:
Puccinia recondita f. Sp. Tritici/Wheat/Leaf Disc Curative (Brown Rust): Wheat leaf segments cv Kanzler were placed on agar in 24-well plates. The leaf segments were inoculated with a spore suspension of the fungus. The plates were stored in darkness at 19° C. and 75% relative humidity. The formulated test compound diluted in water was applied at an application rate of 200 ppm 1 day after inoculation. […] Tritici at 200 ppm when compared to untreated control leaf disks under the same conditions, which show extensive disease development: 2, 13, 16, 23, 30, 61, 75, 89, 103, 173, 174

The next data set concerns Pyrenophora teres. The data set can be described thus: Pyrenophora teres / barley / leaf disc preventative (net blotch). The note with it: foliar, barley leaf segments cv Hasso, inoculated two days after application, assessed 5-7 days after application, read-out: control of Pyrenophora teres (disease control compared to untreated). It counts as in vivo. In short, it runs like this: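 Preventative leaf-disc test: 200 ppm spray, then spore inoculation after two days on barley cv Hasso segments. Incubation 20 °C, 65% relative humidity, 12 h light/12 h dark; efficacy rated against untreated checks at 5-7 days post-application.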

The test system of data set [2] is Botryotinia fuckeliana (Botrytis cinerea). The data set can be described thus: Botryotinia fuckeliana (Botrytis cinerea) / liquid culture (gray mould). It is filed as cell-based. The settings on record: Vogels broth, 24° C., 3-4 days after application, read-out: control of Botryotinia fuckeliana (inhibition of growth, photometric). In short, it runs like this: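 Test compound was applied at 200 ppm in DMSO, then Vogels nutrient broth containing cryo-stored B. cinerea conidia was added. Photometric growth-inhibition reading followed after 3-4 days at 24 °C.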

The subject of another data set is Gaeumannomyces graminis. The data set can be described thus: Gaeumannomyces graminis / liquid culture (take-all of cereals). It counts as cell-based. The settings on record: PDB, 24° C., 4-5 days after application, read-out: control of Gaeumannomyces graminis (inhibition of growth, photometric). In short, it runs like this:
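Growth inhibition, measured by photometry 4-5 days post-application at 24 °C, of fungal mycelial fragments in PDB broth. Test compound applied as DMSO solution at 200 ppm.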

Data set [3] concerns Thanatephorus cucumeris (Rhizoctonia solani). The data set is described as follows: Thanatephorus cucumeris (Rhizoctonia solani) / liquid culture (foot rot, damping-off). It is filed as cell-based. The settings on record: PDB, 24° C., 3-4 days after application, read-out: control of Thanatephorus cucumeris (inhibition of growth, photometric). In short, it runs like this:
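At 200 ppm, compounds in DMSO were combined with fresh liquid-culture mycelia in PDB and kept at 24° C; photometric measurement of growth inhibition after 3-4 days.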

In data set [4] the test system is Puccinia recondita f. sp. Tritici. The data set is described as follows: Puccinia recondita f. sp. tritici / wheat / leaf disc preventative (brown rust). The note with it: foliar, wheat leaf segments cv Kanzler, inoculated 1 day after application, assessed 7-9 days after application, read-out: control of Puccinia recondita f. sp. Tritici (percent disease control compared to untreated). It counts as in vivo. In short, it runs like this:
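Preventative test: percent disease control relative to untreated leaf segments was assessed 7-9 days post-application. Wheat (cv Kanzler) leaf discs were treated at 200 ppm and spore-inoculated 1 day afterwards. Discs were held at 19° C and 75% relative humidity under a 12/12 h light cycle.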

The subject of data set [5] is Phaeosphaeria nodorum (Septoria nodorum). The data set can be described thus: Phaeosphaeria nodorum (Septoria nodorum) / wheat / leaf disc preventative (glume blotch). It is filed as in vivo. The note with it: Parastagonospora nodorum, foliar, wheat leaf segments cv Kanzler, inoculated 2 days after application, assessed 5-7 days after application, read-out: control of Phaeosphaeria nodorum (percent disease control compared to untreated). In short, it runs like this:
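Wheat leaf segments (cv Kanzler) on agar sprayed with compound at 200 ppm, inoculated with spores 2 days later. Incubated at 20° C., 75% relative humidity, 12/12 h light/dark; percent disease control versus untreated scored 5-7 days after application.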

For data set [6], the system named is Glomerella lagenarium (Colletotrichum lagenarium). The data set is described as follows: Glomerella lagenarium (Colletotrichum lagenarium) / liquid culture (anthracnose). It is filed as cell-based. The note with it: Colletotrichum orbiculare, PDB, 24° C., 3-4 days after application, read-out: control of Glomerella lagenarium (inhibition of growth, photometric). In short, it runs like this:
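Test compound, delivered in DMSO at an application rate of 200 ppm, was combined with spore-containing PDB. Photometric growth-inhibition measurement followed 3-4 days of incubation at 24° C.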

A further data set deals with Sclerotinia sclerotiorum. The data set can be described thus: Sclerotinia sclerotiorum liquid culture (cottony rot / white mold). It is filed as cell-based. The settings on record: PDB, 24° C., 3-4 days after application, read-out: control of Sclerotinia sclerotiorum (inhibition of growth, photometric). Summed up: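 Mycelia fragments of Sclerotinia sclerotiorum in potato dextrose broth were added to compound in DMSO. Cultures incubated at 24° C; growth inhibition determined photometrically 3-4 days after application.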

The next data set has as its system Plasmopara viticola. The data set is described as follows: Plasmopara viticola / grape / leaf disc preventative. It counts as in vivo. The settings on record: foliar, grape vine leaf disks, inoculated 1 day after application, assessed 6-8 days after application, read-out: control of Plasmopara viticola (percent disease control compared to untreated).
Data set [7] concerns Mycosphaerella arachidis (Cercospora arachidicola). The data set is described as follows: Mycosphaerella arachidis (Cercospora arachidicola) / liquid culture (early leaf spot). The settings on record: PDB, 24° C., 4-5 days after application, read-out: control of Mycosphaerella arachidis (inhibition of growth, photometric). It counts as cell-based. Summed up: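 Conidia suspended in potato dextrose broth and added to test compound from DMSO solution at 200 ppm. Incubated at 24 °C; growth inhibition read photometrically 4-5 days after application.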

Data set [8] deals with Mycosphaerella graminicola (Septoria tritici). The data set can be described thus: Mycosphaerella graminicola (Septoria tritici) / liquid culture (Septoria blotch). It counts as cell-based. The note with it: Zymoseptoria tritici, PDB, 24° C., 4-5 days after application, read-out: control of Mycosphaerella graminicola (inhibition of growth, photometric). Summed up:
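Growth inhibition was read photometrically after 4–5 days at 24 °C. The test compound was applied at 200 ppm from DMSO solution, then PDB broth seeded with conidia taken straight from cryogenic storage was added.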

Data set [9] deals with Monographella nivalis (Microdochium nivale). The data set can be described thus: Monographella nivalis (Microdochium nivale) / liquid culture (foot rot cereals). It counts as cell-based. The settings on record: PDB, 24° C., 4-5 days after application, read-out: control of Monographella nivalis (inhibition of growth, photometric). Summed up:
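Cryostored conidia in potato dextrose broth were added to test compound dispensed from DMSO at 200 ppm. Plates were kept at 24° C, and growth inhibition was read photometrically 4-5 days after application.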

For the next data set, the system named is Pythium ultimum. The data set can be described thus: Pythium ultimum / liquid culture (seedling damping off). The note with it: Globisporangium ultimum, potato dextrose broth, 24° C., 2-3 days after application, read-out: control of Pythium ultimum (inhibition of growth, photometric). It is filed as cell-based. In short, it runs like this:
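Test compound in DMSO at 200 ppm was incubated with mycelia fragments and oospores in potato dextrose broth at 24 °C. Growth inhibition was read photometrically 2-3 days after application.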

The subject of the next data set is Fusarium culmorum. The data set is described as follows: microbe, parasite or virus in culture. It is filed as cell-based. The note with it: read-out: control of Fusarium culmorum (inhibition of growth, photometric).

This passage reports pest or weed control, inhibition and melting point results from patent US9512120B2, “Microbicidally active imidazopyridine derivatives” (Syngenta Participations AG, priority 2013, dated 2016).

As usually defined, the inhibition is how much of the control response was suppressed. Usually melting point stands for the temperature of the solid-liquid transition.

Molecule `CC=Cn1c(-n2ncnc2N)nc2cnccc21` [Compound 16, 2-(1-prop-1-enylimidazo[4,5-c]pyridin-2-yl)-1,2,4-triazol-3-amine] showed a melting point of 199 to 200 °C. Moreover, in data set [1], the pest or weed control at 200 ppm is at least 80%. Moreover, the pest or weed control at 200 ppm with Pyrenophora teres was at least 80%. Also, the inhibition at 20 ppm in data set [2] was at least 80%. Further, the inhibition at 20 ppm in the data set with Gaeumannomyces graminis is at least 80%. Also, the inhibition at 20 ppm in [3] was at least 80%.

In the case of `CCn1c(-n2ncnc2N)nc2cncc(-c3ccc(C(F)(F)F)cc3)c21` [Compound 30, 2-[1-ethyl-7-[4-(trifluoromethyl)phenyl]imidazo[4,5-c]pyridin-2-yl]-1,2,4-triazol-3-amine], the pest or weed control at 200 ppm (in data set [4]; in data set [1]; in [5]; with Pyrenophora teres) was at least 80% in each case. For the same molecule, the inhibition at 20 ppm (in data set [2]; in data set [6]; in data set [3]; in the data set on Sclerotinia sclerotiorum) was at least 80% in each case.

As to `CCn1c(-n2ncnc2N)nc2cncc(-c3ccccc3F)c21` [Compound 79, 2-[1-ethyl-7-(2-fluorophenyl)imidazo[4,5-c]pyridin-2-yl]-1,2,4-triazol-3-amine], the pest or weed control at 200 ppm (with Plasmopara viticola; in data set [4]; in data set [5]; with Pyrenophora teres) was at least 80% throughout. The inhibition at 20 ppm (in data set [2]; in data set [6]; in data set [7]; in data set [8]; in the data set on Gaeumannomyces graminis; in [3]) was at least 80% in each case. Further, the inhibition at 20 ppm (in data set [9]; with Pythium ultimum; in the data set with Fusarium culmorum; with Sclerotinia sclerotiorum) was at least 80% in each case.

With `C/C=C/CO/N=C(/C)c1cncc2nc(-n3ncnc3N)n(CC)c12` [Compound 176], the pest or weed control at 200 ppm (with Plasmopara viticola; in data set [5]; in the data set with Pyrenophora teres) was at least 80% throughout. The inhibition at 20 ppm (in [2]; in [7]; in data set [8]; in the data set with Gaeumannomyces graminis; in data set [3]; in [9]) was at least 80% each time. Further, the inhibition at 20 ppm in the data set with Pythium ultimum, in the data set with Fusarium culmorum and with Sclerotinia sclerotiorum was at least 80% each time.

Consider `CCCn1c(-n2ncnc2N)nc2cncc(/C(C)=N\OC/C=C\Cl)c21` [Compound 180], for which the pest or weed control at 200 ppm (in the data set with Plasmopara viticola; in data set [4]; in the data set with Pyrenophora teres) was at least 80% throughout. For the same molecule, the inhibition at 20 ppm (in [2]; in data set [7]; in data set [8]; with Gaeumannomyces graminis; in data set [3]; in data set [9]) was at least 80% in each case. In addition, the inhibition at 20 ppm in the data set on Pythium ultimum, with Fusarium culmorum and in the data set with Sclerotinia sclerotiorum was at least 80% throughout.
